Test results as given in patent US7253165B2, “Benzisoxazolyl-, pyridoisoxazolyl-and benzthienyl-phenoxy derivatives useful as D4 antagonists” (Aventis Pharmaceuticals Inc., priority 1999, dated 2007).

Key:
[1] = target: T1, human D4 receptor (D4.2 sub-type) (Homo sapiens, UniProt P21917, DEL265-296); assay: D4 receptor binding assay, displacement of 3H-spiperone; conditions: 3H-spiperone 0.25 nM; for Ki: membranes of HEK cells transfected with human D4.2, * = HCl salt, read-out: D4 RBA Ki; for D4 RBA % Inhibition (@ 1 μM): 1 μM test compound
T1 sequence (P21917 with tags, fused parts or gaps DEL265-296): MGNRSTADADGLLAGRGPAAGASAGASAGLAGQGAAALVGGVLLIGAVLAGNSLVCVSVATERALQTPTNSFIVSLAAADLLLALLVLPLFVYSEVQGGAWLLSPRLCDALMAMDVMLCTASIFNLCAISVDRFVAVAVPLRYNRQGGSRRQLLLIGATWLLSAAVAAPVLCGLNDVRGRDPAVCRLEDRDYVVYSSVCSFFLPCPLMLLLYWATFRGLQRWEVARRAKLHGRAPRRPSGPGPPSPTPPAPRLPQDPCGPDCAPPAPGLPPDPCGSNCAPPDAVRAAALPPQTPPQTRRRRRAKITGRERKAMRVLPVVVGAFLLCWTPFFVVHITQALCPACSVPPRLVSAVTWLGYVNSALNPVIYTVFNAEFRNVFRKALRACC
Procedure: D4 receptor-binding affinities of the compounds were evaluated according to their ability to reduce binding of ^3H-spiperone as compared to the reference compound clozapine. The potency of the test compound to reduce ^3H-spiperone binding directly correlated to its binding affinity for the receptor.
[…] (human embryonic kidney) cells stably transfected with human D4 receptor (D4.2 sub-type) were grown in NUNC cell factories for 5 days (75% confluency) without a media change and removed with versene (approximately 19 mg of cells per cell factory tray). The cells were then centrifuged in a Sorval centrifuge for 10 min, 5000 rpm (GS3 rotor) and the pellets quickly frozen in liquid nitrogen and stored at −80° C. until used in binding assay. When used in the assay, cells were thawed on ice for 20 min and then 10 mL of incubation buffer (50 mM Tris, 1 mM EDTA, 4 mM MgCl2, 5 mM KCl, 1.5 mM CaCl2, 120 mM NaCl, pH 7.4) was added. The cells were then vortexed to resuspend pellet and homogenized with a Kinematica, CH-6010 Kriens-LU, homogenizer for 15 seconds at setting 7. Concentration of receptor protein was determined using the Pierce BCA assay.
The incubation was started by the addition of 100 μl (50 μg protein) membrane homogenate to a solution of 300 μl incubation buffer and 100 μl (0.25 nM final conc.) ^3H-spiperone (90 Ci/mmol, Amersham, diluted in borosilicate glass vial) in 96-well polypropylene plates (1 ML per well). The plates were vortexed and incubated at room temperature for 90 minutes. The binding reaction was stopped by filtering using a Packard Harvester. The samples were filtered under vacuum over glass fibre filter plates (Whatman GF/B) presoaked for 2 hours in 0.3% polyethylenimine (PEI) in 50 mM Tris buffer (pH 7.4). The filters were then washed 6 times with 7 mL ice cold 50 mM Tris buffer (pH 7.4). The filter plates were dried overnight and 35 μl of Microscint-O (Packard) was added. The plates were sealed and counted in the Packard Top Count (3 minutes per well).
The incubation was started by the addition of 100 μl (50 μg protein) membrane homogenate to a solution of 200 μl incubation buffer, 100 μl ^3H-spiperone (90 Ci/mmol, Amersham, diluted in borosilicate glass vial to 0.25 nM final conc.) and 100 μl (30 μM final conc.) of fresh dopamine (Research Biochemicals Inc., light protected and dissolved in incubation buffer) in 96-well polypropylene plates (1 mL per well). The plates were vortexed and incubated at room temperature for 90 minutes at which time the binding reaction was stopped by filtering. The filters were washed and counted using the same procedure as in the total binding assay described above to give the non-specific binding value (NSB).
The incubation was started by the addition, in 96-well polypropylene plates (1 mL per well), of 100 μl (50 μg protein) membrane homogenate to a solution of 200 μl incubation buffer, 100 μl (0.25 nM final-conc.) ^3H-spiperone (90 Ci/mmol, Amersham, diluted in borosilicate glass vial) and 100 μl of test compound that was prepared from 1 mM stock dissolved in DMSO and stored at −20° C. in polypropylene cryogenic storage vials until dilution in incubation buffer in 96-well polypropylene plates. The plates were vortexed and incubated at room temperature for 90 minutes at which time the binding reaction was stopped by filtering. The filters were washed and counted using the same procedure as in the total binding assay described above to give the displacement binding value (BD).
The test compounds were initially assayed at 1 and 0.1 μM and then at a range of concentrations chosen such that the middle dose would cause about 50% inhibition of ^3H-spiperone binding. Specific binding in the absence of test compound (B0) was the difference of total binding (BT) minus non-specific binding (NSB) and similarly specific binding (in the presence of test compound) (B) was the difference of displacement binding (BD) minus non-specific binding (NSB). […]

[2] = tested on: MK-801 induced stereotypy (locomotion and falling behavior) in CD-1 or C57 male mice; assay: MK-801 Stereotypy in Mice; conditions: In Vivo Method PO, MK-801 0.2 mg/kg; for inhibition in vivo at 20 mg/kg: Mus musculus, read-out: Antag. of MK 801 Stereotypy % Inhib. @ 20 mg/kg
Procedure: Mk-801 dose-dependently induces characteristic stereotypy marked by locomotion and falling behavior. This MK-801 induced behavior can be antagonized by novel neuroleptic agents. This assay can also assess time course effects following drug administration.
CD-1 or C57 male mice are individually placed in activity boxes (8 mice/drug) and allowed to acclimate for 60 minutes. The mice are then administered test compounds either i.p., s.c., or p.o., at 15, 30, or 60 minutes prior to MK-801 (0.2 mg/kg) administration. Mice are observed for the presence of locomotion and falling behaviors 15 minutes following MK-801. For the duration of action studies the test compounds are administered i.p., s.c., or p.o., at 30, 60, 120, 180, and 240 minutes prior to MK-801 administration.

## CN(CCc1ccccc1)C[C@@H](O)COc1ccc(-c2noc3cc(F)ccc23)cc1 [Example 6]
[1]
  Ki: 0.042 µM

## O[C@@H](COc1ccc(-c2noc3cc(F)ccc23)cc1)CN1CCN(c2ccccn2)CC1 [Example 8]
[1]
  Ki: 0.009 µM
[2]
  inhibition in vivo at 20 mg/kg: 37.5%

## CN(CCc1ccccc1)C[C@@H](O)COc1ccc(-c2noc3cc(F)ccc23)cc1 [Example 27, (R)-1-[4-(6-fluoro-benzo[d]isoxazol-3-yl)-phenoxy]-3-(methyl-phenethyl-amino)-propan-2-ol]
[1]
  D4 RBA % Inhibition (@ 1 μM): 66%

## O[C@@H](COc1ccc(-c2noc3cc(F)ccc23)cc1)CN1CCN(c2ccccn2)CC1 [Example 29, (R)-1-[4-(6-fluoro-benzo[d]isoxazol-3-yl)-phenoxy]-3-(4-pyridin-2-yl-piperazin-1-yl)-propan-2-ol]
[1]
  D4 RBA % Inhibition (@ 1 μM): 41%

## O[C@@H](COc1ccc(-c2noc3cc(F)ccc23)cc1)CN1CCC(c2noc3cc(F)ccc23)CC1 [Example 34, (R)-1-[4-(6-fluoro-benzo[d]isoxazol-3-yl)-phenoxy]-3-[4-(6-fluoro-benzo[d]isoxazol-3-yl)-piperidin-1-yl]-propan-2-ol]
[1]
  D4 RBA % Inhibition (@ 1 μM): 46%

## O[C@@H](COc1ccc(-c2noc3cc(F)ccc23)cc1)CN1CCC(O)(c2ccccc2)CC1 [Example 38, (R)-1-{3-[4-(6-fluoro-benzo[d]isoxazol-3-yl)-phenoxy]-2-hydroxy-propyl}-4-phenyl-piperidin-4-ol]
[1]
  D4 RBA % Inhibition (@ 1 μM): 54%

## O[C@@H](COc1cccc(-c2noc3cc(F)ccc23)c1)CN1CCN(c2ncccn2)CC1 [Example 69, (R)-1-[3-(6-fluoro-benzo[d]isoxazol-3-yl)-phenoxy]-3-(4-pyrimidin-2-yl-piperazin-1-yl)-propan-2-ol]
[1]
  Ki: 0.014 µM

## O[C@H](CNC1CCc2ccccc21)COc1ccc(-c2noc3cc(F)ccc23)cc1 (stereo partly drawn) [Example 72, (R)-1-[4-(6-fluoro-benzo[d]isoxazol-3-yl)-phenoxy]-3-(indan-1-ylamino)-propan-2-ol]
[1]
  Ki: 0.03 µM

## O[C@H](CNCc1cccs1)COc1ccc(-c2noc3cc(F)ccc23)cc1 [Example 73, (R)-1-[4-(6-fluoro-benzo[d]isoxazol-3-yl)-phenoxy]-3-[(thiophen-2-ylmethyl)-amino]-propan-2-ol]
[1]
  Ki: 0.013 µM

## COc1cccc(CNC[C@@H](O)COc2ccc(-c3noc4cc(F)ccc34)cc2)c1 [Example 80, (R)-1-[4-(6-fluoro-benzo[d]isoxazol-3-yl)-phenoxy]-3-(3-methoxy-benzylamino)-propan-2-ol]
[1]
  D4 RBA % Inhibition (@ 1 μM): 76%

## O[C@H](CNC1Cc2ccccc2C1)COc1ccc(-c2noc3cc(F)ccc23)cc1 [Example 89, (R)-1-[4-(6-fluoro-benzo[d]isoxazol-3-yl)-phenoxy]-3-(indan-2-ylamino)-propan-2-ol]
[1]
  Ki: 0.0013 µM
[2]
  Antag. of MK 801 Stereotypy % Inhib. @ 20 mg/kg: 25%

## O[C@@H](COc1ccc(-c2noc3cc(F)ccc23)cc1)CN1CCC(Oc2cccc(Cl)c2)CC1 [Example 90, (R)-1-[4-(3-chloro-phenoxy)-piperidin-1-yl]-3-[4-(6-fluoro-benzo[d]isoxazol-3-yl)-phenoxy]-propan-2-ol]
[1]
  Ki: 0.027 µM

## O[C@H](CNCc1ccc(F)cc1)COc1ccc(-c2csc3ccccc23)cc1 [Example 96, (R)-1-(4-benzo[b]thiophen-3-yl-phenoxy)-3-(4-fluoro-benzylamino)-propan-2-ol]
[1]
  Ki: 0.026 µM

## O[C@@H](COc1cccc(-c2noc3ncccc23)c1)CN1CCC(Oc2cccc(Cl)c2)CC1 [Example 102, (R)-1-[4-(3-chloro-phenoxy)-piperidin-1-yl]-3-(3-isoxazolo[5,4-b]pyridin-3-yl-phenoxy)-propan-2-ol]
[1]
  D4 RBA % Inhibition (@ 1 μM): 59%

## O[C@@H](COc1cccc(-c2noc3ncccc23)c1)CN1CCN(c2ncccn2)CC1 [Example 106, (R)-1-(3-isoxazolo[5,4-b]pyridin-3-yl-phenoxy)-3-(4-pyrimidin-2-yl-piperazin-1-yl)-propan-2-ol]
[1]
  Ki: 0.0084 µM

## CCCC1CCN(CCOc2ccc(-c3noc4cc(F)ccc34)cc2)CC1 [Example 146]
[1]
  Ki: 0.034 µM

## Fc1ccc2c(-c3ccc(OCCN4CCC5(CC4)OCCO5)cc3)noc2c1 [Example 152]
[1]
  Ki: 0.0071 µM

## CC1CCN(CCCOc2ccc(-c3noc4cc(F)ccc34)cc2)CC1 [Example 153]
[1]
  Ki: 0.0038 µM
[2]
  inhibition in vivo at 20 mg/kg: 75%

## CCCC1CCN(CCCOc2ccc(-c3noc4cc(F)ccc34)cc2)CC1 [Example 154]
[1]
  Ki: 0.0112 µM
[2]
  inhibition in vivo at 20 mg/kg: 25%

## Fc1ccc2c(-c3ccc(OCCCN4CCCCCC4)cc3)noc2c1 [Example 156]
[1]
  Ki: 0.00388 µM
[2]
  inhibition in vivo at 20 mg/kg: 50%

## Fc1ccc2c(-c3ccc(OCCCN4CCCCCCC4)cc3)noc2c1 [Example 157]
[1]
  Ki: 0.00835 µM
[2]
  inhibition in vivo at 20 mg/kg: 50%

## Fc1ccc2c(-c3ccc(OCCCNCC4CCCCC4)cc3)noc2c1 [Example 158]
[1]
  Ki: 0.00842 µM
[2]
  inhibition in vivo at 20 mg/kg: 37.5%
